Results taken from patent US10590078B2, “Sodium channel blockers” (Daewoong Pharmaceutical Co., Ltd., priority 2015, dated 2020).

Target: human sodium ion channel 1.7 (hNav1.7) (Homo sapiens, UniProt Q15858)
Experiment: Blocking effect against sodium ion channel Nav1.7, IonFlux16 auto patch clamp in hNav1.7 HEK293 cells
Format: cell-based
Details: hNav1.7 HEK293 cells; inhibition of peak current after 50 seconds treatment; eight concentrations; read-out: IC50

Sequence of human sodium ion channel 1.7 (hNav1.7) (Q15858 whole entry): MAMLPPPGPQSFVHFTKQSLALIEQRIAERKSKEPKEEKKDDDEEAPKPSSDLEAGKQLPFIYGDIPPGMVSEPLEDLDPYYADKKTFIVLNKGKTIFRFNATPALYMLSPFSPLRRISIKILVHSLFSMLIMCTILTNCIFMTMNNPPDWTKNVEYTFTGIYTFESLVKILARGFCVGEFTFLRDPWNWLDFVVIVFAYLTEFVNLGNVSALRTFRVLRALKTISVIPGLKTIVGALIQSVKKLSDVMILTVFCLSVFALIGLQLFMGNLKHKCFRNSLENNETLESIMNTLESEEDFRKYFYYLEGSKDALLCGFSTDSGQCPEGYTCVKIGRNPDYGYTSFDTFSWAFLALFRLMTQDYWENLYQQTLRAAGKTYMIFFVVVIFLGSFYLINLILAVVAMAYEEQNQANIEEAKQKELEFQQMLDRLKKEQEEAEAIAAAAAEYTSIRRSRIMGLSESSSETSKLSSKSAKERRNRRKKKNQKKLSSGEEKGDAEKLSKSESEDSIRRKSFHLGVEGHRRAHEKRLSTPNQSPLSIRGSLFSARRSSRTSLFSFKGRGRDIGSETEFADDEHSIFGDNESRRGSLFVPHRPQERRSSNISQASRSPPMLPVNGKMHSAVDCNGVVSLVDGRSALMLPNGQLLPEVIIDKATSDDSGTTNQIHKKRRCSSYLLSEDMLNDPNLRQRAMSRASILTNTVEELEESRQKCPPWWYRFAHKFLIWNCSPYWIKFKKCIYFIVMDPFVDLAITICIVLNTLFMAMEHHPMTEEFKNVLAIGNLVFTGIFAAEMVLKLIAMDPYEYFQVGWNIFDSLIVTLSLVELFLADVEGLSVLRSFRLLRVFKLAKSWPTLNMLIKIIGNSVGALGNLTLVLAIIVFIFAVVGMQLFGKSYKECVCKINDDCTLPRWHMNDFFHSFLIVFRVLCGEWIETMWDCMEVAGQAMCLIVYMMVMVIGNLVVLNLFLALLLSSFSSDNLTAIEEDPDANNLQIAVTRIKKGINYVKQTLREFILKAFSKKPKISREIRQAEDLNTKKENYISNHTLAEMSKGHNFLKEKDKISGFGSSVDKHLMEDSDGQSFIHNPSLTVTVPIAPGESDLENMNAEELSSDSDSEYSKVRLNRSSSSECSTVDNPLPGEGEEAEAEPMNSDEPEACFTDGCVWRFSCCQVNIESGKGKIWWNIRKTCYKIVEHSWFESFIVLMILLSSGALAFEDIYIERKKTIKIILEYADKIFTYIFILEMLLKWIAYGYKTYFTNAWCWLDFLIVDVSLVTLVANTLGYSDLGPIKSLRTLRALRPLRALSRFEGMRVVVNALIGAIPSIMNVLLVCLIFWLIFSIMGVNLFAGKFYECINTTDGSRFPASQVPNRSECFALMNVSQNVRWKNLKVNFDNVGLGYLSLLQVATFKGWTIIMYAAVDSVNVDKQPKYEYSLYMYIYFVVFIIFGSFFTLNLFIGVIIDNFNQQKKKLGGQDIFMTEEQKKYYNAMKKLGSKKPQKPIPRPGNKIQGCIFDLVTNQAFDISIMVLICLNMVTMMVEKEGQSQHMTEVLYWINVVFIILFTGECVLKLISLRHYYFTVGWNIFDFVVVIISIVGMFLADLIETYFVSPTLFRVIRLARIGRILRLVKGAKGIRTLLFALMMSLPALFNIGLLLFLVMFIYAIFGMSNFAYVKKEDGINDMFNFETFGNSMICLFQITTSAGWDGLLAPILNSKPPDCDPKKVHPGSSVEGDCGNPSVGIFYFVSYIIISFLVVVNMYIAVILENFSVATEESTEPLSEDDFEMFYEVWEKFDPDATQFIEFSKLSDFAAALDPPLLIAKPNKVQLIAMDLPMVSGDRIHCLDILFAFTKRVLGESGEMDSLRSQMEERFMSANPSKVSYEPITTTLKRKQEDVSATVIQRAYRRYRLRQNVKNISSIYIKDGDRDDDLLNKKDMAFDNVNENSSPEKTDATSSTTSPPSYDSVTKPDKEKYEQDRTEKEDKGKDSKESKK

Row | IC50 [µM] | SMILES
1 | > 10 | Cc1nn(-c2cc(F)c(C(=O)NS(C)(=O)=O)cc2Cl)c2ccc(Cl)cc12 [Example 1, 5-chloro-4-(5-chloro-3-methyl-1H-indazol-1-yl)-2-fluoro-N-(methylsulfonyl)benzamide]
2 | 0.227 | CN(C)S(=O)(=O)NC(=O)c1cc(Cl)c(-n2nc(Cl)c3cc(Cl)ccc32)cc1F [Example 7, 5-chloro-4-(3,5-dichloro-1H-indazol-1-yl)-N—(N,N-dimethylsulfamoyl)-2-fluorobenzamide]
3 | 0.117 | CS(=O)(=O)NC(=O)c1cc(Cl)c(-n2nc(Cl)c3cc(Cl)ccc32)cc1F [Example 9, 5-chloro-4-(3,5-dichloro-1H-indazol-1-yl)-2-fluoro-N-(methylsulfonyl)benzamide]
4 | > 10 | CS(=O)(=O)NC(=O)c1cc(Cl)c(-n2ncc3cc(N)ccc32)cc1F [Example 13, 4-(5-amino-1H-indazol-1-yl)-5-chloro-2-fluoro-N-(methylsulfonyl)benzamide]
5 | 3.09 | CS(=O)(=O)NC(=O)c1cc(Cl)c(-n2ncc3c(Cl)c(F)ccc32)cc1F [Example 15, 5-chloro-4-(4-chloro-5-fluoro-1H-indazol-1-yl)-2-fluoro-N-(methylsulfonyl)benzamide]
6 | > 10 | CS(=O)(=O)NC(=O)c1cc(Cl)c(-n2nc(Cl)c3cc(O)ccc32)cc1F [Example 16, 5-chloro-4-(3-chloro-5-hydroxy-1H-indazol-1-yl)-2-fluoro-N-(methylsulfonyl)benzamide]
7 | 0.476 | CS(=O)(=O)NC(=O)c1cc(Cl)c(-n2nc(Cl)c3cc(F)ccc32)cc1F [Example 17, 5-chloro-4-(3-chloro-5-fluoro-1H-indazol-1-yl)-2-fluoro-N-(methylsulfonyl)benzamide]
8 | 0.216 | CS(=O)(=O)NC(=O)c1cc(Cl)c(-n2nc(Br)c3cc(Cl)ccc32)cc1F [Example 19, 4-(3-bromo-5-chloro-1H-indazol-1-yl)-5-chloro-2-fluoro-N-(methylsulfonyl)benzamide]
9 | 0.966 | CS(=O)(=O)NC(=O)c1cc(Cl)c(-n2nc(C#N)c3cc(Br)ccc32)cc1F [Example 22, 4-(5-bromo-3-cyano-1H-indazol-1-yl)-5-chloro-2-fluoro-N-(methylsulfonyl)benzamide]
10 | 0.365 | CS(=O)(=O)NC(=O)c1cc(Cl)c(-n2nc(Cl)c3cc([N+](=O)[O-])ccc32)cc1F [Example 23, 5-chloro-4-(3-chloro-5-nitro-1H-indazol-1-yl)-2-fluoro-N-(methylsulfonyl)benzamide]
11 | 0.28 | CS(=O)(=O)NC(=O)c1cc(Cl)c(-n2nc(Cl)c3cc(C4CC4)ccc32)cc1F [Example 24, 5-chloro-4-(3-chloro-5-cyclopropyl-1H-indazol-1-yl)-2-fluoro-N-(methylsulfonyl)benzamide]
12 | 7.71 | CS(=O)(=O)NC(=O)c1cc(Cl)c(-n2nc(Cl)c3cc(Nc4ccccc4)ccc32)cc1F [Example 27, 5-chloro-4-(3-chloro-5-(phenylamino)-1H-indazol-1-yl)-2-fluoro-N-(methylsulfonyl)benzamide]
13 | 0.049 | CS(=O)(=O)NC(=O)c1cc(Cl)c(-n2nc(Cl)c3cc(OCc4ccccc4)ccc32)cc1F [Example 28, 4-(5-(benzyloxy)-3-chloro-1H-indazol-1-yl)-5-chloro-2-fluoro-N-(methylsulfonyl)benzamide]
14 | 0.786 | CS(=O)(=O)NC(=O)c1cc(Cl)c(-n2ncc3c(Cl)c(OCc4ccccc4)ccc32)cc1F [Example 29, 4-(5-(benzyloxy)-4-chloro-1H-indazol-1-yl)-5-chloro-2-fluoro-N-(methylsulfonyl)benzamide]
15 | 0.158 | CS(=O)(=O)NC(=O)c1cc(Cl)c(-n2nc(Cl)c3c(Cl)c(OCc4ccccc4F)ccc32)cc1F [Example 32, 5-chloro-4-(3,4-dichloro-5-((2-fluorobenzyl)oxy)-1H-indazol-1-yl)-2-fluoro-N-(methylsulfonyl)benzamide]
16 | 0.211 | CS(=O)(=O)NC(=O)c1cc(Cl)c(-n2nc(Cl)c3cc(OCC4CCCCC4)ccc32)cc1F [Example 34, 5-chloro-4-(3-chloro-5-(cyclohexylmethoxy)-1H-indazol-1-yl)-2-fluoro-N-(methylsulfonyl)benzamide]
17 | 0.159 | CS(=O)(=O)NC(=O)c1cc(Cl)c(-n2nc(Cl)c3cc(OCc4ccccc4F)ccc32)cc1F [Example 37, 5-chloro-4-(3-chloro-5-((2-fluorobenzyl)oxy)-1H-indazol-1-yl)-2-fluoro-N-(methylsulfonyl)benzamide]

Further lines, the compound ahead of its results:

Row | SMILES | IC50 [µM]
18 | CS(=O)(=O)NC(=O)c1cc(Cl)c(-n2ncc3cc(Cl)ccc32)cc1F [Example 2, 5-chloro-4-(5-chloro-1H-indazol-1-yl)-2-fluoro-N-(methylsulfonyl)benzamide] | 5.39
19 | CS(=O)(=O)NC(=O)c1cc(Cl)c(-n2nc(Cl)c3cc(Cl)cnc32)cc1F [Example 3, 5-chloro-4-(3,5-dichloro-1H-pyrazolo[3,4-b]pyridin-1-yl)-2-fluoro-N-(methylsulfonyl)benzamide] | 1.13
20 | CS(=O)(=O)NC(=O)c1ccc(-n2nc(Cl)c3cc(Cl)ccc32)cc1F [Example 4, 4-(3,5-dichloro-1H-indazol-1-yl)-2-fluoro-N-(methylsulfonyl)benzamide] | > 10
21 | CS(=O)(=O)NC(=O)c1cc(Cl)c(-n2nc(N)c3cc(Cl)ccc32)cc1F [Example 5, 4-(3-amino-5-chloro-1H-indazol-1-yl)-5-chloro-2-fluoro-N-(methylsulfonyl)benzamide] | > 10
22 | CC(=O)Nc1nn(-c2cc(F)c(C(=O)NS(C)(=O)=O)cc2Cl)c2ccc(Cl)cc12 [Example 6, 4-(3-acetamido-5-chloro-1H-indazol-1-yl)-5-chloro-2-fluoro-N-(methylsulfonyl)benzamide] | > 10
23 | CS(=O)(=O)NC(=O)c1ccc(-n2nc(Cl)c3cc(Cl)ccc32)c(Cl)c1 [Example 8, 3-chloro-4-(3,5-dichloro-1H-indazol-1-yl)-N-(methylsulfonyl)benzamide] | 0.88
24 | CS(=O)(=O)NC(=O)c1cc(Cl)c(-n2ncc3cc(Cl)ncc32)cc1F [Example 10, 5-chloro-4-(5-chloro-1H-pyrazolo[3,4-c]pyridin-1-yl)-2-fluoro-N-(methylsulfonyl)benzamide] | > 10
25 | CS(=O)(=O)NC(=O)c1cc(Cl)c(-n2nc(Cl)c3cc(Cl)ncc32)cc1F [Example 11, 5-chloro-4-(3,5-dichloro-1H-pyrazolo[3,4-c]pyridin-1-yl)-2-fluoro-N-(methylsulfonyl)benzamide] | > 10
26 | CS(=O)(=O)NC(=O)c1ccc(-n2nc(Cl)c3cc(O)ccc32)cc1 [Example 12, 4-(3-chloro-5-hydroxy-1H-indazol-1-yl)-N-(methylsulfonyl)benzamide] | > 10
27 | Cc1nn(-c2cc(F)c(C(=O)NS(C)(=O)=O)cc2Cl)c2ccc([N+](=O)[O-])cc12 [Example 14, 5-chloro-2-fluoro-4-(3-methyl-5-nitro-1H-indazol-1-yl)-N-(methylsulfonyl)benzamide] | 3 to 10
28 | CS(=O)(=O)NC(=O)c1cc(Cl)c(-n2nc(Cl)c3cc(C(F)(F)F)ccc32)cc1F [Example 18, 5-chloro-4-(3-chloro-5-(trifluoromethyl)-1H-indazol-1-yl)-2-fluoro-N-(methylsulfonyl)benzamide] | 0.587
29 | CS(=O)(=O)NC(=O)c1cc(Cl)c(-n2nc(Cl)c3cc(Br)ccc32)cc1F [Example 21, 4-(5-bromo-3-chloro-1H-indazol-1-yl)-5-chloro-2-fluoro-N-(methylsulfonyl)benzamide] | 0.175
30 | CS(=O)(=O)NC(=O)c1cc(Cl)c(-n2nc(-c3ccccc3)c3cc(C4CC4)ccc32)cc1F [Example 26, 5-chloro-4-(5-cyclopropyl-3-phenyl-1H-indazol-1-yl)-2-fluoro-N-(methylsulfonyl)benzamide] | 0.1
31 | Cc1nn(-c2cc(F)c(C(=O)NS(C)(=O)=O)cc2Cl)c2ccc(OCc3ccccc3)cc12 [Example 30, 4-(5-(benzyloxy)-3-methyl-1H-indazol-1-yl)-5-chloro-2-fluoro-N-(methylsulfonyl)benzamide] | 0.247
32 | CS(=O)(=O)NC(=O)c1cc(Cl)c(-n2nc(Cl)c3c(Cl)c(OCc4ccc(F)cc4)ccc32)cc1F [Example 31, 5-chloro-4-(3,4-dichloro-5-((4-fluorobenzyl)oxy)-1H-indazol-1-yl)-2-fluoro-N-(methylsulfonyl)benzamide] | 1.51
33 | CC(Oc1ccc2c(c1)c(Cl)nn2-c1cc(F)c(C(=O)NS(C)(=O)=O)cc1Cl)c1ccccc1 (centres unmarked) [Example 33, 5-chloro-4-(3-chloro-5-(1-phenylethoxy)-1H-indazol-1-yl)-2-fluoro-N-(methylsulfonyl)benzamide] | 0.214
34 | CS(=O)(=O)NC(=O)c1cc(Cl)c(-n2nc(Cl)c3cc(OCc4ccc5ccccc5c4)ccc32)cc1F [Example 35, 5-chloro-4-(3-chloro-5-(naphthalen-2-ylmethoxy)-1H-indazol-1-yl)-2-fluoro-N-(methylsulfonyl)benzamide] | 0.076
35 | CS(=O)(=O)NC(=O)c1cc(Cl)c(-n2nc(Cl)c3cc(OCc4ccc(F)cc4)ccc32)cc1F [Example 36, 5-chloro-4-(3-chloro-5-((4-fluorobenzyl)oxy)-1H-indazol-1-yl)-2-fluoro-N-(methylsulfonyl)benzamide] | 0.087
36 | CS(=O)(=O)NC(=O)c1cc(Cl)c(-n2nc(Cl)c3cc(OCc4cccc(F)c4)ccc32)cc1F [Example 38, 5-chloro-4-(3-chloro-5-((3-fluorobenzyl)oxy)-1H-indazol-1-yl)-2-fluoro-N-(methylsulfonyl)benzamide] | 0.098
37 | CC(Oc1ccc2c(c1)c(Cl)nn2-c1cc(F)c(C(=O)NS(C)(=O)=O)cc1Cl)c1ccc(F)cc1 (centres unmarked) [Example 39, 5-chloro-4-(3-chloro-5-(1-(4-fluorophenyl)ethoxy)-1H-indazol-1-yl)-2-fluoro-N-(methylsulfonyl)benzamide] | 0.28
38 | CS(=O)(=O)NC(=O)c1cc(Cl)c(-n2nc(Cl)c3cc(OCCc4ccccc4)ccc32)cc1F [Example 40, 5-chloro-4-(3-chloro-5-phenethoxy-1H-indazol-1-yl)-2-fluoro-N-(methylsulfonyl)benzamide] | 0.19
